From patent US7384629B2, “Biological control of nematodes with Hirsutella minnesotensis” (Regents of the University of Minnesota, priority 2000, dated 2008)

Test system: Hirsutella rhossiliensis
Assay: Effect of carbon source on growth, sporulation and spore germination
Conditions: for Growth mm-in-diam, on agar: carbon source 4 g/liter carbon; for Growth mm-in-diam, on agar / Sporulation 10^3/cm^2, on agar / growth in liquid culture (visual rating): 5 weeks; for Sporulation 10^3/cm^2, on agar / growth in liquid culture (visual rating) / Spore germination %, on agar: carbon source; for Spore germination %, on agar: after incubation for 24 hr

Compound	Growth mm-in-diam, on agar (isolate ATCC46487)	Growth mm-in-diam, on agar (isolate JA16-1)	Growth mm-in-diam, on agar (isolate OWVT-1)	Sporulation 10^3/cm^2, on agar (isolate ATCC46487)	growth in liquid culture (visual rating) (isolate ATCC46487)	Spore germination %, on agar (isolate ATCC46487)	Sporulation 10^3/cm^2, on agar (isolate JA16-1)	Spore germination %, on agar (isolate JA16-1)	Sporulation 10^3/cm^2, on agar (isolate OWVT-1)	growth in liquid culture (visual rating) (isolate OWVT-1)	Spore germination %, on agar (isolate OWVT-1)	growth in liquid culture (visual rating) (isolate JA16-1)
O=C(CO)[C@@H](O)[C@H](O)[C@H](O)CO [D(−)fructose]	16.2 mm-in-diam	0.0 mm-in-diam	8.5 mm-in-diam	50.2 10^3/cm^2	I	45.6%	0.0 10^3/cm^2	34.4%	36.8 10^3/cm^2	I	50.0%	–
OC[C@H]1O[C@H](OCC2O[C@@H](O)[C@H](O)[C@@H](O)[C@@H]2O)[C@H](O)[C@@H](O)[C@H]1O (some centres unmarked) [Melibiose]	35.0 mm-in-diam	11.8 mm-in-diam	18.2 mm-in-diam	41.9 10^3/cm^2	III (III = hyphae growth or colonies form a pellet, less than 2.5 ml)	40.0%	13.1 10^3/cm^2	61.7%	33.7 10^3/cm^2	–	48.9%	I
OC[C@H]1O[C@@](CO)(O[C@H]2O[C@H](CO)[C@@H](O)[C@H](O)[C@H]2O)[C@@H](O)[C@@H]1O [Sucrose]	39.5 mm-in-diam	15.0 mm-in-diam	21.8 mm-in-diam	38.9 10^3/cm^2	III (III = hyphae growth or colonies form a pellet, less than 2.5 ml)	55.6%	6.9 10^3/cm^2	73.4%	47.7 10^3/cm^2	–	52.2%	I
O=C[C@H](O)[C@@H](O)[C@@H](O)[C@H](O)CO [D(+)galactose]	25.0 mm-in-diam	0.0 mm-in-diam	7.0 mm-in-diam	2.8 10^3/cm^2	I	62.2%	7.4 10^3/cm^2	43.3%	7.7 10^3/cm^2	–	43.3%	–
O=C[C@H](O)[C@H](O)[C@H](O)CO [D(−) ribose]	15.5 mm-in-diam	0.0 mm-in-diam	8.0 mm-in-diam	61.3 10^3/cm^2	–	48.9%	0.0 10^3/cm^2	15.5%	1.4 10^3/cm^2	–	45.6%	–
O=C(CO)[C@@H](O)[C@H](O)[C@@H](O)CO [L-(−)-sorbose]	7.8 mm-in-diam	0.0 mm-in-diam	6.7 mm-in-diam	62.5 10^3/cm^2	I	35.6%	0.0 10^3/cm^2	13.3%	7.4 10^3/cm^2	I	26.7%	–
OC[C@H]1O[C@@H](O[C@H]2[C@H](O)[C@@H](O)[C@H](O)O[C@@H]2CO)[C@H](O)[C@@H](O)[C@@H]1O [D-(+)-cellubiose]	33.0 mm-in-diam	10.0 mm-in-diam	–	13.8 10^3/cm^2	I	58.9%	88.8 10^3/cm^2	52.2%	23.9 10^3/cm^2	I	52.2%	I
OC[C@@H](O)[C@@H](O)[C@H](O)[C@@H](O)CO [D-sorbitol]	30.3 mm-in-diam	18.3 mm-in-diam	11.7 mm-in-diam	64.7 10^3/cm^2	III (III = hyphae growth or colonies form a pellet, less than 2.5 ml)	57.8%	4.2 10^3/cm^2	67.8%	126.0 10^3/cm^2	–	56.7%	I
O=C[C@H](O)[C@@H](O)[C@H](O)CO [D(+)xylose]	0.0 mm-in-diam	0.0 mm-in-diam	0.0 mm-in-diam	0.0 10^3/cm^2	–	21.1%	2.5 10^3/cm^2	24.4%	0.0 10^3/cm^2	–	26.7%	–
Glycogen	46.8 mm-in-diam	20.5 mm-in-diam	34.8 mm-in-diam	77.5 10^3/cm^2	–	72.2%	12.4 10^3/cm^2	77.8%	7.9 10^3/cm^2	IV (IV = the pellet diameter larger than 1 cm, but the total volume distribution less than 5 ml)	72.2%	IV (IV = the pellet diameter larger than 1 cm, but the total volume distribution less than 5 ml)
O.OC[C@H]1O[C@@H](O[C@H]2[C@H](O)[C@@H](O)[C@@H](O)O[C@@H]2CO)[C@H](O)[C@@H](O)[C@H]1O [a-lactose monohydrate]	35.8 mm-in-diam	15.8 mm-in-diam	9.8 mm-in-diam	2.4 10^3/cm^2	I	56.7%	37.3 10^3/cm^2	68.9%	17.4 10^3/cm^2	I	42.2%	I
OC[C@H]1O[C@H](O[C@H]2[C@H](O)[C@@H](O)[C@H](O)O[C@@H]2CO)[C@H](O)[C@@H](O)[C@@H]1O [Maltose monohydrate]	34.3 mm-in-diam	11.0 mm-in-diam	13.7 mm-in-diam	21.9 10^3/cm^2	I	36.7%	26.6 10^3/cm^2	64.5%	34.2 10^3/cm^2	I	46.7%	I
O=C[C@@H](O)[C@H](O)[C@H](O)CO [D-(−)-arabinose]	18.0 mm-in-diam	0.0 mm-in-diam	9.7 mm-in-diam	22.3 10^3/cm^2	–	48.9%	27.0 10^3/cm^2	32.2%	35.2 10^3/cm^2	–	40.0%	–
O=C(O)CC(O)(CC(=O)O)C(=O)O [Citric acid]	11.3 mm-in-diam	0.0 mm-in-diam	9.0 mm-in-diam	39.5 10^3/cm^2	–	50.0%	7.4 10^3/cm^2	38.9%	87.5 10^3/cm^2	–	52.2%	–
OC[C@@H](O)[C@@H](O)[C@H](O)[C@H](O)CO [D-mannitol]	29.5 mm-in-diam	18.0 mm-in-diam	23.2 mm-in-diam	15.9 10^3/cm^2	III (III = hyphae growth or colonies form a pellet, less than 2.5 ml)	58.9%	17.3 10^3/cm^2	61.1%	40.6 10^3/cm^2	–	60.0%	I
O=C[C@H](O)[C@@H](O)[C@H](O)[C@H](O)CO [D-(+)-glucose]	28.3 mm-in-diam	6.5 mm-in-diam	8.0 mm-in-diam	7.7 10^3/cm^2	I	61.1%	28.1 10^3/cm^2	65.5%	30.7 10^3/cm^2	I	56.7%	–
Inulin	36.7 mm-in-diam	20.0 mm-in-diam	25.2 mm-in-diam	3.5 10^3/cm^2	–	54.4%	10.4 10^3/cm^2	72.2%	4.2 10^3/cm^2	–	50.0%	I
